Assays:
OAT4 = target: T1, OAT4 (Homo sapiens, UniProt Q9NSA0); test: OTA uptake in OAT4-overexpressing HEK293 cells (screen and kinetics)
T1 sequence (Q9NSA0 1-550): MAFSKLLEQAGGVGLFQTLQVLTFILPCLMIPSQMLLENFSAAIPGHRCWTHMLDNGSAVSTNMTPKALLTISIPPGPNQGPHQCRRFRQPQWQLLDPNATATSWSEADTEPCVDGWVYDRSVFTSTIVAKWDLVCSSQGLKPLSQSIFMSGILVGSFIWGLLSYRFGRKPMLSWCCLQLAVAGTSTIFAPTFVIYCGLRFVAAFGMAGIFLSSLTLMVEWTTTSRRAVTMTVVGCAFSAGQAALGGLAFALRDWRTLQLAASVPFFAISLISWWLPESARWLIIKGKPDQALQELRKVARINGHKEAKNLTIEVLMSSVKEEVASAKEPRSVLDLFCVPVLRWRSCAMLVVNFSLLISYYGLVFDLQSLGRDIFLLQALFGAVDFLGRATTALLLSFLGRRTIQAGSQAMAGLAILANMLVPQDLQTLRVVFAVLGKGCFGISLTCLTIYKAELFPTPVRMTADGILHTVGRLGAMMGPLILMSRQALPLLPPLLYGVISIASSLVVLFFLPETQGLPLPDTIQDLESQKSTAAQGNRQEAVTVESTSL
Description: (§1) The following experiments were conducted at the University of Washington. Mock HEK293 cells and transporter-overexpressing HEK293 cells (i.e., OAT1–4, OCT2, MATE1/2K, OCTN1, OATP1A2), mock CHO cells, and OCTN2-overexpressing CHO cells were plated in 96 well plates coated with 0.05 mg/mL of poly-D-lysine in 50 μL DPBS at a density of 800,000 cells/mL and grown until reaching over 90% of confluence. […] For uptake experiments in MATE1- and MATE2-K-expressing HEK293 cells, the pH of the incubation buffer was adjusted to 8.0 to facilitate substrate uptake. For uptake experiments in OATP1A2-expressing and OAT4-expressing HEK293 cells, the pH of the incubation buffer was adjusted to 6.5 to mimic pH of the urinary filtrate, as these are apical transporters. The incubation buffer was kept at pH 7.4 for all other transporters. […] Uptake was quenched by removing the substrates/inhibitors and washing the cells 3 times with 200 μL of ice-cold HBSS++. […] The precipitated protein was allowed to dry and subsequently solubilized overnight in 1M NaOH, neutralized with 1 M HCl the next day, and measured by BCA assay.
(§2) All cellular-based assays were conducted in technical triplicate across three independent experiments. […] This cutoff was defined a priori. […] Jnet was then treated as the initial uptake rate, and Km and Vmax values were obtained by fitting the Michaelis–Menten equation to the substrate-concentration data as described above. Intrinsic clearance (CLint) was then calculated by the formula, CLint=Vmax/Km using Vmax and Km values as calculated above. […] At steady-state, the mass balance for intracellular concentrations assuming symmetric passive permeabilities (Papical = Pbasal, taken as Papp from mock assays) and apical efflux gives: Ccell= Cbasal/1+ ke/Pa where Cbasal is the concentration in the basal chamber and ke is the first-order elimination with respect to BCRP. Because the asymmetric efflux ratio ERa is defined as: ERa=1+ ke/Pa

human MRP2 = target: T2, human MRP2 (Homo sapiens, UniProt Q92887); test: OTA uptake in MRP2-expressing Sf9 membrane vesicles; format: in vitro ADME; conditions: 10 μM OTA, 5 min
T2 construct: purchased BioIVT; host or cells: Sf9 cell-derived membrane vesicles
Description: The following experiments were conducted at BioIVT.

OATP1A2 = target: T3, OATP1A2 (Homo sapiens, UniProt P46721); test: OTA uptake in OATP1A2-overexpressing HEK293 cells (screen and kinetics)
T3 sequence (P46721 1-670): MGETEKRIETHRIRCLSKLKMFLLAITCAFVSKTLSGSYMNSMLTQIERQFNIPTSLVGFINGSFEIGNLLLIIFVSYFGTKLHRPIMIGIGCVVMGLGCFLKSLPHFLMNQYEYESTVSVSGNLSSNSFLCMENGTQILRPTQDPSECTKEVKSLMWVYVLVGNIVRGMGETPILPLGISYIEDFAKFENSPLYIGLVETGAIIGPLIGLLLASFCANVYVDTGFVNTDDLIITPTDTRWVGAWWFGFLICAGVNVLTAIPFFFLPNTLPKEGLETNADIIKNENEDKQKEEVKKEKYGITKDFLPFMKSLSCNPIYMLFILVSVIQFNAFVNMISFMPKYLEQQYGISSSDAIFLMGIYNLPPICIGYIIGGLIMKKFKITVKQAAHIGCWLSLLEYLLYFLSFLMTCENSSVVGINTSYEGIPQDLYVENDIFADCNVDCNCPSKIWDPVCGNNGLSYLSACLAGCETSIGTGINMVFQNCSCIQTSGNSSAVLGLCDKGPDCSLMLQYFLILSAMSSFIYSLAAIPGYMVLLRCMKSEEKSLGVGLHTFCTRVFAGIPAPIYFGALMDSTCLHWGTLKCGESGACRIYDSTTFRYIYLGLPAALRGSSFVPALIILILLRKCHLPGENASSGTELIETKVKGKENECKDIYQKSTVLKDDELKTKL
Description: as §1, §2

SLC17A3 (NPT4) = conditions: OTA extracellular efflux; cited from earlier work
MRP2 = conditions: read-out: IC50, inhibition of MRP2-mediated p-aminohippurate efflux; cited from earlier work
[1] = system: human serum albumin (HSA); conditions: no reference given; cited from earlier work
hPEPT (PEPT1, PEPT2) = test: OTA uptake in PEPT1- and PEPT2-expressing MDCK-II cells; format: in vitro ADME, human; conditions: 10 μM OTA, pH 6.5, 5 min
[2] = HEK293, 5 min, 37 °C, pH 6.5, mock-corrected

T2 sequence (Q92887 whole entry): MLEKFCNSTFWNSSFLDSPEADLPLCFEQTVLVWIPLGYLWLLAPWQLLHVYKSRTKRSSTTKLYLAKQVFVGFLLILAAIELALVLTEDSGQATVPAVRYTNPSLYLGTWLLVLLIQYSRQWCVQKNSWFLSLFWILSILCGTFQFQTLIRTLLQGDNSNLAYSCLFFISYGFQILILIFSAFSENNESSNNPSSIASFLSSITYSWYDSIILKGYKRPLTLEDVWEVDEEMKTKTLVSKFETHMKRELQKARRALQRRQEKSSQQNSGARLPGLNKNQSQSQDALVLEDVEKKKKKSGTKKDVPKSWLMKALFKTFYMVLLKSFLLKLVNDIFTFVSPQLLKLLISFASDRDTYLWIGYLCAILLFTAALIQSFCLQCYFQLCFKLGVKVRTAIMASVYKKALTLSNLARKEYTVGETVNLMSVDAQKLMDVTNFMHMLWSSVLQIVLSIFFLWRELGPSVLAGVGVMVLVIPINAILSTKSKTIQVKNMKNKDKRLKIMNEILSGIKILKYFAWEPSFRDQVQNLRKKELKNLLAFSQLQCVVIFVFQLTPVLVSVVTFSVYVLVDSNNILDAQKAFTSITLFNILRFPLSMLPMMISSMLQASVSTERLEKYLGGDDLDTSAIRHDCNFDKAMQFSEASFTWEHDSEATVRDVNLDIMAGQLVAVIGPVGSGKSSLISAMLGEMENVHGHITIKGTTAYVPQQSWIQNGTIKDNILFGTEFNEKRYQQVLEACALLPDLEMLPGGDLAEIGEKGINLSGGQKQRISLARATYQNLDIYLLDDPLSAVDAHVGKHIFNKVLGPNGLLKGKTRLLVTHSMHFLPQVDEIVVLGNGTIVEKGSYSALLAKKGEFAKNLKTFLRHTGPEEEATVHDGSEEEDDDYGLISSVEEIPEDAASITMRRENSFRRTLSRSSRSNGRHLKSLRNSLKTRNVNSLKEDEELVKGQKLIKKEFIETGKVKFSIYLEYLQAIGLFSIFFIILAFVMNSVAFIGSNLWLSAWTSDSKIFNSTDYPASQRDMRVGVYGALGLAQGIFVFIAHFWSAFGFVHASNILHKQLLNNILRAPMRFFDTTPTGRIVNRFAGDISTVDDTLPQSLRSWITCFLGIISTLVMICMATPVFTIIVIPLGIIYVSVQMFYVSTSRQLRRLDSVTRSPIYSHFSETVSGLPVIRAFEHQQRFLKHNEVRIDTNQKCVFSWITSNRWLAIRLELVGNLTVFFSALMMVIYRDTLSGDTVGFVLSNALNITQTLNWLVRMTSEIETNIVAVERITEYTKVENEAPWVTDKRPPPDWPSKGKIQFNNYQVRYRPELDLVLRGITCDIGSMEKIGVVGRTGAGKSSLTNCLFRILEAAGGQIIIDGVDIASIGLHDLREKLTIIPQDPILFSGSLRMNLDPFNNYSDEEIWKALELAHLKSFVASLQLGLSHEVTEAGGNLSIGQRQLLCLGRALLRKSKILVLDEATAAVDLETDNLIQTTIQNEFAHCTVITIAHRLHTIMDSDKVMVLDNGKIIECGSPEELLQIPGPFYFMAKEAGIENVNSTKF

What does the source list for `C[C@@H]1Cc2c(Cl)cc(C(=O)N[C@@H](Cc3ccccc3)C(=O)O)c(O)c2C(=O)O1` [OTA, Ochratoxin A]?
Km (OAT4; [2]): 6.38 ± 1.45 µM; Vmax (OAT4; [2]): 96.9 ± 18.8 pmol/mg/min; microsomal CLint (OAT4; human, other cell line, pH 6.5): 15.3 ± 0.8 µL/min/mg; MRP2-mediated OTA transport (human MRP2): no MRP2-mediated OTA transport; Vmax (OATP1A2; [2]): 801.0 ± 133.9 pmol/mg/min; microsomal CLint (OATP1A2; human, other cell line, pH 6.5): 21.6 ± 2.3 µL/min/mg; Km at 5 min (OATP1A2; human, pH 6.5): 37.3 ± 6.2 µM; Km (SLC17A3 (NPT4)): 803 µM; IC50 (MRP2): 58 µM; bound to human serum albumin [1]: > 99%; hPEPT-mediated transport of OTA (hPEPT (PEPT1, PEPT2)): did not observe any hPEPT-mediated transport

Reference: publication PMC12655426 (Pharmaceutics, 2025)
